{"source": "patent US20110171321A1", "about": "“ELASTOMERIC ARTICLE HAVING A BROAD SPECTRUM ANTIMICROBIAL AGENT AND METHOD OF MAKING” (priority 2008, published 2011)", "test_system": "E. coli, E. faecalis, K. pneumoniae, P. aeruginosa, C. albicans, S. aureus, and S. epidermidis", "test": "zone of inhibition (ZOI), control articles in each plate", "assay_type": "cell-based", "details": "10 μg disk, values not shown", "text": "Samples were submitted in duplicate for each sterilization process. […] The diameter of each zone is reported in millimeters. […] The control results are not shown."}
{"substance": "gentamicin", "values": [{"measurement": "inhibition by positive control", "value": "expected inhibition"}]}
